Assay results as given in patent US11083709B2, “Compounds, compositions, and methods of increasing CFTR activity” (Proteostasis Therapeutics, Inc., priority 2015, dated 2021).

Target: T1, ΔF508-CFTR (Homo sapiens, UniProt P13569, DEL508-508)
T1 construct: primary lung epithelial cells (hBEs) homozygous for the Cystic Fibrosis-causing ΔF508 mutation; endogenous in cells; host or cells: primary lung epithelial cells (hBEs) homozygous for ΔF508
Experiment: hBE equivalent current (Ieq) assay, primary lung epithelial cells homozygous for ΔF508
Assay type: cell-based
Conditions: 24 h treatment; for leq: activity of compound with VX-809, % of VX-809 (AUC of equivalent chloride current): compound at 10 uM and VX-809 at 1 uM, relative to VX-809 (1 uM); for leq: activity relative to VX-809 (AUC of equivalent chloride current): compound alone run at 10 uM, relative to VX-809 at 1 uM
Procedure: Primary lung epithelial cells homozygous for the Cystic Fibrosis-causing ΔF508 mutation were differentiated for a minimum of 4 weeks in an air-liquid interface on Costar 24 well HTS filter plates prior to the equivalent current (Ieq) measurements. Cells were apically mucus-washed for 30 minutes 24h prior to treatment with compounds. The basolateral media was removed and replaced with media containing the compound of interest diluted to its final concentration from DMSO stocks. Treated cells were incubated at 37° C. and 5% CO2 for 24 hours. At the end of the treatment period, the media was changed to the Ieq experimental solution for 30 minutes before the experiment and plates are maintained in a CO2-free incubator during this period. The plates containing the cells were then placed in pre-warmed heating blocks at 36° C.±0.5 for 15 minutes before measurements are taken. The transepithelial voltage (VT) and conductance (GT) were measured using a custom 24 channel current clamp (TECC-24) with 24 well electrode manifold. The Ieq assay measurements were made following additions with standardized time periods: • 1. The baseline VT and GT values were measured for approximately 20 minutes. • 2. Benzamil was added to block ENaC for 15 minutes. • 3. Forskolin plus VX-770 (ivacaftor) were added to maximally activate ΔF508-CFTR for 27 minutes. • 4. Bumetanide was added to inhibit the NaK2Cl cotransporter and shut-off secretion of chloride.
The activity data captured was the area under the curve (AUC) for the traces of the equivalent chloride current. The AUC was collected from the time of the forskolin/VX-770 addition until the inhibition by bumetanide addition. Correction in response to compound treatment was scored as the increase in the AUC for compound-treated samples over that of vehicle-treated samples.
The results are shown below in Table 2. ++ indicates activity ≥25% run at 10 uM of VX-809 at 1 uM, + indicates activity 10 to <25% run at 10 uM of VX-809 at 1 uM, ** indicates activity ≥200% of VX-809 (1 uM) with compound at 10 uM and VX-809 at 1 uM; * indicates activity 100-200% of VX-809 (1 uM) with compound at 10 uM and VX-809 at 1 uM. ^## indicates activity ≥200% of VX-809 (3 uM) with compound at 10 uM and VX-809 at 3 uM; ^# indicates activity 100-200% of VX-809 (3 uM) with compound at 10 uM and VX-809 at 3 uM.

T1 sequence (P13569 with tags, fused parts or gaps DEL508-508): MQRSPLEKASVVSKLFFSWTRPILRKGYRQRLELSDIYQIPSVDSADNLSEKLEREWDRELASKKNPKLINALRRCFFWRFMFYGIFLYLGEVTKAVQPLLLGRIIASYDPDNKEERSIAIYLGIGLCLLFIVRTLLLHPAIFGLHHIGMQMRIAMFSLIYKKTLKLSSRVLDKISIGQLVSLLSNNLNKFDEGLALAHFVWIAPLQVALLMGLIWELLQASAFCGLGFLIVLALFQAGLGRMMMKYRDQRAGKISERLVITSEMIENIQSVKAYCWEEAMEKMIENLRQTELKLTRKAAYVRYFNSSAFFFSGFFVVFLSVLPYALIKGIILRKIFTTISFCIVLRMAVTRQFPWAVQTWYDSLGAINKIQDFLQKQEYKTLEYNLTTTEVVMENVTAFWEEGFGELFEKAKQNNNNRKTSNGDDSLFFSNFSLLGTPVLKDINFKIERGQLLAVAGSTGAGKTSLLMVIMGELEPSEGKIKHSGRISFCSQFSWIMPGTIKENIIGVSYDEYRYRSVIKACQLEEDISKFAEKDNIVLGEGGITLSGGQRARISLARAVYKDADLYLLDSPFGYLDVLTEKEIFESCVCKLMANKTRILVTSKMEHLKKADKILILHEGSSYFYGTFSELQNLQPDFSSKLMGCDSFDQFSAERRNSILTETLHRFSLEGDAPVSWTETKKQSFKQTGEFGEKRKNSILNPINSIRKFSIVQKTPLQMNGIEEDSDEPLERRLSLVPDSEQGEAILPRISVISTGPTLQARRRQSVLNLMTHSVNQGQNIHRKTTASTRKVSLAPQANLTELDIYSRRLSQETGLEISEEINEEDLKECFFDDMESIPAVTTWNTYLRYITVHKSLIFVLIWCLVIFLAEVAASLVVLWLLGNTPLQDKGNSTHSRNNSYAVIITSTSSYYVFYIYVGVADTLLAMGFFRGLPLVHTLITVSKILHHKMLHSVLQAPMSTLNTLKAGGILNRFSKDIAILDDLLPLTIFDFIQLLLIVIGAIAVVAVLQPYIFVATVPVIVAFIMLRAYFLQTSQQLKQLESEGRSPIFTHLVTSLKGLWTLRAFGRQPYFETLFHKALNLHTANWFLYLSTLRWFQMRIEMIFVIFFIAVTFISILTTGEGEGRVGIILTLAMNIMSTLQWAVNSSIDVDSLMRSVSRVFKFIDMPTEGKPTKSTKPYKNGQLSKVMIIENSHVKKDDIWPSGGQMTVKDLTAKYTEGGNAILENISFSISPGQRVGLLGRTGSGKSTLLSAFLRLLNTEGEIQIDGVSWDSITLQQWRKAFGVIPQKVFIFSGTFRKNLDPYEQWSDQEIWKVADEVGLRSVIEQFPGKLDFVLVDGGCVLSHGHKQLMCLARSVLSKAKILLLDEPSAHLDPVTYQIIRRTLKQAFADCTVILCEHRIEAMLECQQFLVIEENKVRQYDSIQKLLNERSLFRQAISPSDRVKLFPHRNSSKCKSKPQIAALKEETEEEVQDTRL

Row | SMILES | leq: activity of compound with VX-809, % of VX-809 (AUC of equivalent chloride current) | leq: activity relative to VX-809 (AUC of equivalent chloride current)
1 | C[C@@H](O)c1nnc(CC2CC(NC(=O)c3cc(-c4ccc(F)cc4)no3)C2)o1 (stereo partly drawn) [Example 40, 3-(4-Fluorophenyl)-N-[(1r,3r)-3-([5-[(1R)-1-hydroxyethyl]-1,3,4-oxadiazol-2-yl]methyl)cyclobutyl]-1,2-oxazole-5-carboxamide] | ** (** indicates activity ≥200% of VX-809 (1 uM) with compound at 10 uM and VX-809 at 1 uM) | –
2 | CC(OC1CCC1)c1nnc([C@H]2C[C@H](NC(=O)c3cc(-c4ccccc4)no3)C2)o1 (relative stereo) [Example 17, N-(trans-3-(5-(1-cyclobutoxyethyl)-1,3,4-oxadiazol-2-yl)cyclobutyl)-3-phenylisoxazole-5-carboxamide] | * (* indicates activity 100-200% of VX-809 (1 uM) with compound at 10 uM and VX-809 at 1 uM) | –
3 | O=C(N[C@H]1C[C@H](c2nnc(C3CN(CC4CCC4)C3)o2)C1)c1cc(-c2ccccc2)no1 [Example 27, N-(trans-3-(5-(1-(cyclobutylmethyl)azetidin-3-yl)-1,3,4-oxadiazol-2-yl)cyclobutyl)-3-phenylisoxazole-5-carboxamide] | * (* indicates activity 100-200% of VX-809 (1 uM) with compound at 10 uM and VX-809 at 1 uM) | –
4 | O=C(N[C@H]1C[C@@H](n2nncc2CO)C1)c1cc(-c2ccccc2)no1 [Example 28, N-(cis-3-(5-(hydroxymethyl)-1H-1,2,3-triazol-1-yl)cyclobutyl)-3-phenylisoxazole-5-carboxamide] | ** (** indicates activity ≥200% of VX-809 (1 uM) with compound at 10 uM and VX-809 at 1 uM) | –
5 | C[C@@H](O)c1nnc(CC2CC(NC(=O)c3cc(-c4ccc(F)cc4)no3)C2)s1 (stereo partly drawn) [Example 43, 3-(4-Fluorophenyl)-N-[(1s,3s)-3-([5-[(1R)-1-hydroxyethyl]-1,3,4-thiadiazol-2-yl]methyl)cyclobutyl]-1,2-oxazole-5-carboxamide] | ** (** indicates activity ≥200% of VX-809 (1 uM) with compound at 10 uM and VX-809 at 1 uM) | –
6 | C[C@@H](O)c1nnc(C[C@H]2C[C@@H](NC(=O)c3cc(-c4cccs4)no3)C2)o1 [Example 45, N-[(1s,3s)-3-([5-[(1R)-1-Hydroxyethyl]-1,3,4-oxadiazol-2-yl]methyl)cyclobutyl]-3-(thiophen-2-yl)-1,2-oxazole-5-carboxamide] | * (* indicates activity 100-200% of VX-809 (1 uM) with compound at 10 uM and VX-809 at 1 uM) | –
7 | O=C(N[C@H]1C[C@H](c2nnc(C3CS(=O)(=O)C3)o2)C1)c1cc(-c2ccccc2)no1 [Example 23, N-(trans-3-(5-(1,1-dioxidothietan-3-yl)-1,3,4-oxadiazol-2-yl)cyclobutyl)-3-phenylisoxazole-5-carboxamide] | * (* indicates activity 100-200% of VX-809 (1 uM) with compound at 10 uM and VX-809 at 1 uM) | –
8 | C[C@H](O)c1cnnn1C[C@H]1C[C@@H](NC(=O)c2cc(-c3ccccc3)no2)C1 [Example 57, 3-Phenyl-N-[(1s,3s)-3-([5-[(1S)-1-hydroxyethyl]-1H-1,2,3-triazol-1-yl]methyl)cyclobutyl]-1,2-oxazole-5-carboxamide] | ** (** indicates activity ≥200% of VX-809 (1 uM) with compound at 10 uM and VX-809 at 1 uM) | –
9 | C[C@@H](O)c1nnc(CC2CC(NC(=O)c3cc(-c4ccccc4)no3)C2)s1 (stereo partly drawn) [Example 41, 3-Phenyl-N-[(1s,3s)-3-([5-[(1R)-1-hydroxyethyl]-1,3,4-thiadiazol-2-yl]methyl)cyclobutyl]-1,2-oxazole-5-carboxamide] | ** (** indicates activity ≥200% of VX-809 (1 uM) with compound at 10 uM and VX-809 at 1 uM) | –
10 | C[C@H](O)c1cn(C[C@H]2C[C@@H](NC(=O)c3cc(-c4ccccc4)no3)C2)nn1 [Example 58, 3-Phenyl-N-[(1s,3s)-3-([4-[(1S)-1-hydroxyethyl]-1H-1,2,3-triazol-1-yl]methyl)cyclobutyl]-1,2-oxazole-5-carboxamide] | * (* indicates activity 100-200% of VX-809 (1 uM) with compound at 10 uM and VX-809 at 1 uM) | –
11 | C[C@@H](O)c1nnc(CC2CC(NC(=O)c3cc(-c4ccccc4)no3)C2)o1 (stereo partly drawn) [Example 37, N-((1S,3s)-3-((5-((R)-1-hydroxyethyl)-1,3,4-oxadiazol-2-yl)methyl)cyclobutyl)-3-phenylisoxazole-5-carboxamide] | ** (** indicates activity ≥200% of VX-809 (1 uM) with compound at 10 uM and VX-809 at 1 uM) | –
12 | O=C(NCC1CCCO1)c1cc(-c2ccccc2)no1 (stereo not shown) [Example 2, 3-phenyl-N-((tetrahydrofuran-2-yl)methyl)isoxazole-5-carboxamide] | – | ++ (++ indicates activity ≥25% run at 10 uM of VX-809 at 1 uM)
13 | O=C(NC1CC(c2nnc(C3COC3)o2)C1)c1cc(-c2ccccc2)no1 (stereo not drawn) [Example 22, N-trans-3-(5-(oxetan-3-yl)-1,3,4-oxadiazol-2-yl)cyclobutyl)-3-phenylisoxazole-5-carboxamide] | * (* indicates activity 100-200% of VX-809 (1 uM) with compound at 10 uM and VX-809 at 1 uM) | –
14 | O=C(NCC1CCCO1)c1cc(-c2ccccc2)co1 (stereo not shown) [Example 9, 4-phenyl-N-((tetrahydrofuran-2-yl)methyl)furan-2-carboxamide] | – | ++ (++ indicates activity ≥25% run at 10 uM of VX-809 at 1 uM)
15 | CC(OCC(F)(F)F)c1nnc(C2CC(NC(=O)c3cc(-c4ccccc4)no3)C2)o1 (single isomer, unassigned) [Example 15] | * (* indicates activity 100-200% of VX-809 (1 uM) with compound at 10 uM and VX-809 at 1 uM) | –
16 | O=C(NCCCn1ccnc1)c1cc(-c2ccccc2)no1 [Example 4, N-(3-(1H-imidazol-1-yl)propyl)-3-phenylisoxazole-5-carboxamide] | – | + (+ indicates activity 10 to <25% run at 10 uM of VX-809 at 1 uM)
17 | C[C@@H](O)c1nnc([C@H]2C[C@H](NC(=O)c3cc(-c4ccc(F)cc4)no3)C2)o1 [Example 36, 3-(4-fluorophenyl)-N-(trans-3-(5-((R)-1-hydroxyethyl)-1,3,4-oxadiazol-2-yl)cyclobutyl)isoxazole-5-carboxamide] | * (* indicates activity 100-200% of VX-809 (1 uM) with compound at 10 uM and VX-809 at 1 uM) | –
18 | CO[C@H](C)c1nnc([C@H]2C[C@H](NC(=O)c3cc(-c4ccccc4)no3)C2)o1 [Example 14, N-(trans-3-(5-((R)-1-methoxyethyl)-1,3,4-oxadiazol-2-yl)cyclobutyl)-3-phenylisoxazole-5-carboxamide] | * (* indicates activity 100-200% of VX-809 (1 uM) with compound at 10 uM and VX-809 at 1 uM) | –
19 | O=C(NCCCn1ccnc1)c1cc(-c2ccccc2)co1 [Example 11, N-(3-(1H-imidazol-1-yl)propyl)-4-phenylfuran-2-carboxamide] | – | ++ (++ indicates activity ≥25% run at 10 uM of VX-809 at 1 uM)
